# Test results reported in patent US20120219561A1, “Prophylaxis Against Cancer Metastasis” (Ingeneron, Inc., priority 2009, published 2012).
# Key:
# [1] = test system: LCN2 expression in SKBr3 cells; assay: Western blotting of LCN2 levels in SKBr3 cells incubated with pathway inhibitors; format: cell-based, human
# Procedure: FIG. 3 depicts experiments showing that LCN2 (NGAL) is a down-stream target of the HER2/PI-3K/AKT/NF-κB pathway. A. Western blotting of LCN2 levels in HER2^+SKBr3 cells treated with Herceptin. B. Western blotting of LCN2 levels in SKBr3 cells incubated with PI-3K inhibitor LY 294002. C. Western blotting of LCN2 levels in SKBr3 cells incubated with the NF-KB inhibitor Bay11-7082. D. Western blotting of LCN2 levels in SKBr3 cells transiently expressing active or dominant negative AKT.
# In addition, overexpression of dominant negative AKT led to reduced expression of LCN2, while overexpression of dominant active AKT increased LCN2 levels ([…]). […] Iannetti A, et al. “The neutrophil gelatinase-associated lipocalin (NGAL), a NF-kappaB-regulated gene, is a survival factor for thyroid neoplastic cells” Proc Natl Acad Sci USA 105(37) (2008) 14058.
# 4T1 mammospheres = assay: Transwell migration assay of 4T1 mammospheres; format: cell-based, murine; details: recombinant SDF-1 in serum-free medium in lower chamber
# Procedure: FIG. 5 show the mediators for interaction between stem cells and cancer cells. (A) 4T1 cells and especially spheroid-forming 4T1 cells migrate toward the conditioned medium of mASC. 4T1 cells (3×10^4) were plated in the upper chamber of a 3 μm transwell system. The lower chamber was filled with 1 ml of 72 h conditioned medium of mASC. After 24 h of migration through the transwell membrane, cells were fixed and stained with calcein. The results are the mean and SD number of migrated cells per microscopic field under fluorescent microscope. (B) Data showing that mASC but not 4T1 cells produce SDF-1; 4T1 cells especially spheroid-forming 4T1 cells show higher messenger RNA levels of the specific receptor CXCR4. Secreted amounts of SDF-1a were measured by enzyme-linked immunosorbent assay and CXCR4 messenger RNA levels were determined by quantitative reverse transcription-polymerase chain reaction (RT-PCR). Reverse transcription-polymerase chain reaction results were normalized against GAPDH. (C) 4T1 cells and mammospheres migrate toward recombinant SDF-1 in a transwell system. Recombinant murine SDF-1 in serum-free medium was filled into the lower chamber in stated concentrations. CXCR4 inhibition was performed by 30 μg/ml neutralizing antibody 1 h before and during the migration assay. […]
# CXCR4 receptor = details: animal and human studies; cited from earlier work
compound,measurement,setting,value
Cc1ccc(S(=O)(=O)/C=C/C#N)cc1 [Bay11-7082],LCN2 expression,[1],reduced in a dose-dependent manner
"recombinant SDF-1: recombinant murine SDF-1 (CXCL12), ligand of CXCR4",migration of 4T1 spheroid-forming cells,4T1 mammospheres,triggers migration
c1cc(CN2CCCNCCNCCCNCC2)ccc1CN1CCCNCCNCCCNCC1 [AMD3100],hematopoietic stem cell mobilization,CXCR4 receptor,able to induce hematopoietic stem cell mobilization
